In brackets after ≈: the same amount, converted by molar mass. Read-outs that look alike come from different tables or passages of the source. Residues, ends and D or L forms follow the SMILES beside them.
Experiments:
[1] = system: Pseudomonas aeruginosa (ATCC 27853); assay type: cell-based; conditions: ATCC 27853, 3 h, pH 7.4
In short: (§1)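 Log-phase bacteria (~10^7) were exposed for three hours to twofold peptide dilutions from 25 to […] in potassium-phosphate buffer at pH 7.4. Aliquots were then plated on LB agar and incubated overnight at 37 °C. The minimal bactericidal concentration was the lowest dose eliminating all viable bacteria.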

[2] = system: Klebsiella pneumoniae (NCTC 13440); assay type: cell-based; conditions: NCTC 13440, 3 h, pH 7.4
In short: as §1

[3] = system: Listeria monocytogenes (ATCC 19111); assay type: cell-based; conditions: ATCC 19111, 3 h, pH 7.4
In short: as §1

[4] = system: Acinetobacter baumannii (ATCC 17978); assay type: cell-based; conditions: ATCC 17978, 3 h, pH 7.4
In short: as §1

[5] = system: Staphylococcus aureus (HNCMO112011); assay type: cell-based
In short: as §1

[6] = system: Enterococcus faecalis (ATCC 29212); assay type: cell-based; conditions: Enterococcus faecalis ATCC 29212; ~10^7 log phase bacteria, 3 h in potassium-phosphate buffer (PPB) pH 7.4; peptide 25 to 0.125 μM 2-fold series; 5 μl on LB agar, overnight 37 °C
In short: as §1

[7] = system: Salmonella enterica (ATCC 13076); assay type: cell-based
In short: as §1

[8] = system: Escherichia coli (ATCC 8739); assay type: cell-based
In short: as §1

[9] = system: Candida species; conditions: cited from earlier work
Text: NCR169, a cationic peptide (net charge at pH7 is 1.91) consisting of 38 amino acids with four cysteine residues, is crucial for bacteroid differentiation, and its absence results in no nitrogen fixation but premature nodule senescence. Two NMR structures of NCR169 produced in Escherichia coli resulting from different disulfide bond patterns have been determined by utilizing the ^1H-^15N heteronuclear single-quantum coherence (HSQC) NMR technique.

[10] = system: S. aureus (ATCC 25923); assay type: cell-based, Staphylococcus aureus; conditions: ATCC 25923, 3 h, pH 7.4
Text: (§2) The bacterial strains for the antimicrobial assay were obtained from the ATCC (American Type Culture Collection, Manassas, VA, USA) and NCTC (National Collection of Type Cultures, Salisbury, UK). Gram-negative strains were Pseudomonas aeruginosa (ATCC 27853), Escherichia coli (ATCC 8739, ATCC 35218, and ATCC 25922), Salmonella enterica (ATCC 13076), Klebsiella pneumoniae (NCTC 13440), Acinetobacter baumannii (ATCC 17978) and the Gram-positive strains were Enterococcus faecalis (ATCC 29212), Listeria monocytogenes (ATCC 19111), and Staphylococcus aureus (HNCMO112011 and ATCC 25923).
(§3) Determination of antibacterial activity for the peptides was carried out by utilizing a minimum bactericidal concentration (MBC) bioassay. Synthesized peptides were dissolved in sterile water and used from 25 to 0.125 μM in 2-fold dilution series and incubated with ~10^7 log phase bacteria in Potassium-Phosphate Buffer (PPB, pH: 7.4) for three hours as described earlier. After that, 5 μl of each sample was placed on LB agar and the growth of bacteria was monitored after overnight incubation at 37 °C. The lowest concentration of the antimicrobial agents that completely eliminated viable bacteria was considered the minimal bactericidal concentration (MBC).

[11] = system: tested bacteria (ESKAPE pathogens, Listeria monocytogenes, Salmonella enterica); assay type: cell-based; conditions: 3 h, pH 7.4
In short: as §1

[12] = system: E. coli (ATCC 25922); assay type: cell-based, Escherichia coli; conditions: ATCC 25922, 3 h, pH 7.4
Text: as §2, §3

[13] = system: E. coli (ATCC 35218); assay type: cell-based, Escherichia coli; conditions: ATCC 35218, 3 h, pH 7.4
Text: as §2, §3

[14] = system: tested bacteria (ESKAPE pathogens, Listeria monocytogenes, Salmonella enterica); design: method as in PMID 32153547; conditions: same bacterial species; cited from earlier work

| SMILES | Minimal bactericidal concentration (MBC) P. a. [1] [µM] | Minimal bactericidal concentration (MBC) K. p. [2] [µM] | Minimal bactericidal concentration (MBC) L. m. [3] [µM] | Minimal bactericidal concentration (MBC) A. b. [4] [µM] | Minimal bactericidal concentration (MBC) S. a. ([5]; Staphylococcus aureus HNCMO112011, ~10^7 log phase bacteria, 3 h in PPB pH 7.4, peptide 25 to 0.125 μM 2-fold series, plated on LB agar, overnight 37 °C) | Minimal bactericidal concentration (MBC) E. f. [6] | Minimal bactericidal concentration (MBC) S. e. ([7]; Salmonella enterica ATCC 13076, ~10^7 log phase bacteria, 3 h in PPB pH 7.4, peptide 25 to 0.125 μM 2-fold series, plated on LB agar, overnight 37 °C) | Minimal bactericidal concentration (MBC) E. c. ([8]; ATCC 8739, 3 h, pH 7.4) [µM] | antifungal activity against different Candida species [9] | MBC S.a. ATTC 25923 [10] [µM] | MBC against most or all of the tested bacteria [11] [µM] | Minimal bactericidal concentration (MBC) S. a. ([5]; HNCMO112011, 3 h, pH 7.4) [µM] | Minimal bactericidal concentration (MBC) S. e. ([7]; ATCC 13076, 3 h, pH 7.4) [µM] | Minimal bactericidal concentration (MBC) E. c. ([8]; Escherichia coli ATCC 8739, ~10^7 log phase bacteria, 3 h in PPB pH 7.4, peptide 25 to 0.125 μM 2-fold series, plated on LB agar, overnight 37 °C) [µM] | MBC E.c. ATTC 25922 [12] [µM] | MBC E.c. ATTC 35218 [13] [µM] | MBCs compared with the NCR169 peptide derivatives [14] |
| --- | --- | --- | --- | --- | --- | --- | --- | --- | --- | --- | --- | --- | --- | --- | --- | --- | --- |
| CC[C@H](C)[C@H](NC(=O)[C@H](CCCCN)NC(=O)[C@H](Cc1ccccc1)NC(=O)[C@H](CC(C)C)NC(=O)[C@@H]1CCCN1C(=O)[C@H](CCCCN)NC(=O)[C@H](CCCCN)NC(=O)[C@H](CO)NC(=O)[C@@H](N)CCCCN)C(=O)N[C@@H](C)C(=O)N[C@@H](CCCCN)C(=O)N[C@@H](CS)C(=O)N[C@H](C(=O)N[C@@H](CCC(=O)O)C(=O)N[C@@H](CC(N)=O)C(=O)N[C@H](C(=O)N[C@@H](CS)C(=O)N[C@H](C(=O)N[C@@H](CC(C)C)C(=O)N[C@@H](C)C(=O)N[C@@H](Cc1ccc(O)cc1)C(=O)N[C@@H](CCCCN)C(N)=O)C(C)C)C(C)C)C(C)C [NCR169C17–38W10,20/A] (H-KSKKPLFKIAKCVENVCVLAYK-NH2; N-terminus assumed) | 3.1 (≈ 7.78 µg/mL) | 12.5 (≈ 31.4 µg/mL) | 25 (≈ 62.7 µg/mL) | 3.1 (≈ 7.78 µg/mL) | - (-: inactive up to 25 μM) | - (-: inactive up to 25 μM) | - (-: inactive up to 25 μM) | 3.1 (≈ 7.78 µg/mL) | possess antifungal activity |  |  |  |  |  |  |  |  |
| CC[C@H](C)[C@H](NC(=O)[C@H](CCCCN)NC(=O)[C@H](Cc1ccccc1)NC(=O)[C@H](CC(C)C)NC(=O)[C@@H]1CCCN1C(=O)[C@H](CCCCN)NC(=O)[C@H](CCCCN)NC(=O)[C@H](CO)NC(=O)[C@@H](N)CCCCN)C(=O)N[C@@H](Cc1c[nH]c2ccccc12)C(=O)N[C@@H](CCCCN)C(=O)N[C@@H](CS)C(=O)N[C@H](C(=O)N[C@@H](CCC(=O)O)C(=O)N[C@@H](CC(N)=O)C(=O)N[C@H](C(=O)N[C@@H](CS)C(=O)N[C@H](C(=O)N[C@@H](CC(C)C)C(=O)N[C@@H](Cc1c[nH]c2ccccc12)C(=O)N[C@@H](Cc1ccc(O)cc1)C(=O)N[C@@H](CCCCN)C(N)=O)C(C)C)C(C)C)C(C)C [NCR169C17–38] (H-KSKKPLFKIWKCVENVCVLWYK-NH2; N-terminus assumed) | 3.1 (≈ 8.49 µg/mL) | 3.1 (≈ 8.49 µg/mL) | 3.1 (≈ 8.49 µg/mL) | 3.1 (≈ 8.49 µg/mL) |  | 6.3 µM (≈ 17.3 µg/mL) |  |  | possess antifungal activity | 3.1 (≈ 8.49 µg/mL) | 3.1 | 3.1 (≈ 8.49 µg/mL) | 3.1 (≈ 8.49 µg/mL) | 1.6 (≈ 4.38 µg/mL) | 1.6 (≈ 4.38 µg/mL) | 1.6 (≈ 4.38 µg/mL) |  |
| CC1(C)S[C@@H]2[C@H](NC(=O)C(C(=O)O)c3ccccc3)C(=O)N2[C@H]1C(=O)O (stereo partly drawn) [carbenicillin] |  |  |  |  |  |  |  |  |  |  |  |  |  |  |  |  | 2–4 fold |
| C[C@H]1COc2c(N3CCN(C)CC3)c(F)cc3c(=O)c(C(=O)O)cn1c23 [levofloxacin] |  |  |  |  |  |  |  |  |  |  |  |  |  |  |  |  | either similar or 200-fold higher |

Reference: publication PMC9917201, “Enhanced Antibacterial Activity of Substituted Derivatives of NCR169C Peptide” (International Journal of Molecular Sciences, 2023)
